Test results: article PMC4690813 (Journal of medicinal chemistry, 2015)

Experiments:
recombinant human DAGLα = target: T1, recombinant human DAGLα (Homo sapiens, UniProt Q9Y4D2); test: colorimetric DAGLα activity assay; assay type: biochemical; settings: for LipE: LipE = pIC50 - cLogP; for fold drop in potency/activity: 2 compared to 1, 109 compared to 1, 122 compared to oleoyl analogue 121
T1 sequence (Q9Y4D2 1-1042): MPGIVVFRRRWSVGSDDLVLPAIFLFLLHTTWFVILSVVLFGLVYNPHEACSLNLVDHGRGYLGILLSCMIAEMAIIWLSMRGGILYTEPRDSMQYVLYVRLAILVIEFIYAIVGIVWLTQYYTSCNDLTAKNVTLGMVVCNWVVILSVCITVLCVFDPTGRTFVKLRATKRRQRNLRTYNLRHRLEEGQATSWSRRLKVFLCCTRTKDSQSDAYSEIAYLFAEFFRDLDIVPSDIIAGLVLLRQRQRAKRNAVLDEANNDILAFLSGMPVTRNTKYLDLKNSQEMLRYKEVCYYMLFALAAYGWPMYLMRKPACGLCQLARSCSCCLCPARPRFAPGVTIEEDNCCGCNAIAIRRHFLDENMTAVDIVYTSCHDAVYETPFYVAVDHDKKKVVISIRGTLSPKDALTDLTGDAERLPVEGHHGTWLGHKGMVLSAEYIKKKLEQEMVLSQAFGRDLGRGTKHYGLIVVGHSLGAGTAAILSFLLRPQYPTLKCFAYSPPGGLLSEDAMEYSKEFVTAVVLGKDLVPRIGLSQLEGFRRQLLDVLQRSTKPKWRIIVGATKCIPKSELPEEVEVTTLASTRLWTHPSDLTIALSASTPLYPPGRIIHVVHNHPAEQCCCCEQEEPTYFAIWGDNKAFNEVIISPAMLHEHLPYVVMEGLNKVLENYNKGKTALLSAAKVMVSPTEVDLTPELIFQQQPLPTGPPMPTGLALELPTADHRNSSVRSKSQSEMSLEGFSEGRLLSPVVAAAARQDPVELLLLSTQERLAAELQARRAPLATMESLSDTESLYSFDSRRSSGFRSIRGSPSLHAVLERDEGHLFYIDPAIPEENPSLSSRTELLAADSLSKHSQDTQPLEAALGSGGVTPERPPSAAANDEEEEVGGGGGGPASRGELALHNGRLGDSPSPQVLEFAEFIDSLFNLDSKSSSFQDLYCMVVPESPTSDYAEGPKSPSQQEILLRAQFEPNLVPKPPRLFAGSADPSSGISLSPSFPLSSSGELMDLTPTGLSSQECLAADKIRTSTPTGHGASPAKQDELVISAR

[1] = system: panel of serine hydrolases; settings: gel-based competitive ABPP; FAAH only detected off-target; ref [12], [13]; cited from earlier work
FAAH = FAAH activity reported in the literature; assay type: biochemical; settings: DAGLα pIC50 versus previously reported FAAH pKi

Compound	LipE (recombinant human DAGLα)	other results
O=C(CCCCCCc1ccccc1)c1nc(C(=O)C(F)(F)F)co1 [Compound 45]		selectivity over FAAH (FAAH): selective over FAAH
O=C(CCc1ccccc1)c1nc2ncccc2o1 [Compound 106, 1-(Oxazolo[4,5-b]pyridin-2-yl)-3-phenylpropan-1-one]	2.11	
CCCCC/C=C\C/C=C\C/C=C\C/C=C\CCCC(=O)c1nc2ncccc2o1 [Compound 122]		fold drop in potency/activity (recombinant human DAGLα): ~100 fold
CCCCCCCC/C=C\CCCCCCCC(=O)c1nc2ccccc2[nH]1 [Compound 123]		selectivity over FAAH (FAAH): selective over FAAH
O=C(CCCCCCc1ccccc1)c1ncc(-c2ccccn2)o1 [OL-135, reference compound]		DAGLα inhibitor activity (in words) (recombinant human DAGLα): not active

The next lines start with results.

LipE (recombinant human DAGLα)	Compound	other results
3.35	O=C(CCCCCc1ccccc1)c1nc2ncccc2o1 [Compound 1, 1-(Oxazolo[4,5-b]pyridin-2-yl)-6-phenylhexan-1-one]	selectivity over a panel of serine hydrolases [1]: highly selective
2.64	O=C(CCCc1ccccc1)c1nc2ncccc2o1 [Compound 107, 1-(Oxazolo[4,5-b]pyridin-2-yl)-4-phenylbutan-1-one]	
3.15	O=C(CCCCc1ccccc1)c1nc2ncccc2o1 [Compound 108, 1-(Oxazolo[4,5-b]pyridin-2-yl)-5-phenylpentan-1-one]	
1.68	O=C(CCCCCCc1ccccc1)c1nc2ncccc2o1 [Compound 109, 1-(Oxazolo[4,5-b]pyridin-2-yl)-7-phenylheptan-1-one]	fold drop in potency/activity (recombinant human DAGLα): > 10 fold
2.20	O=C(CCCCCCCc1ccccc1)c1nc2ncccc2o1 [Compound 110, 1-(Oxazolo[4,5-b]pyridin-2-yl)-8-phenyloctan-1-one]	
2.78	O=C(CCCCCCCCc1ccccc1)c1nc2ncccc2o1 [Compound 111]	
